Results taken from PMC4115637 (Pharmacology Research & Perspectives, 2014).
Residue numbers refer to the chain shown, from its start. Where a name gives a salt, the structure may show the parent alone. Read-outs that look alike come from different tables or passages of the source.

Legend:
[1] = molecular target: T1, human TRPV3 (Homo sapiens, UniProt Q8NET8); experiment: Calcium flux in TRPV3 overexpressing HEK-293 cells; assay type: cell-based
T1 sequence (Q8NET8 1-790): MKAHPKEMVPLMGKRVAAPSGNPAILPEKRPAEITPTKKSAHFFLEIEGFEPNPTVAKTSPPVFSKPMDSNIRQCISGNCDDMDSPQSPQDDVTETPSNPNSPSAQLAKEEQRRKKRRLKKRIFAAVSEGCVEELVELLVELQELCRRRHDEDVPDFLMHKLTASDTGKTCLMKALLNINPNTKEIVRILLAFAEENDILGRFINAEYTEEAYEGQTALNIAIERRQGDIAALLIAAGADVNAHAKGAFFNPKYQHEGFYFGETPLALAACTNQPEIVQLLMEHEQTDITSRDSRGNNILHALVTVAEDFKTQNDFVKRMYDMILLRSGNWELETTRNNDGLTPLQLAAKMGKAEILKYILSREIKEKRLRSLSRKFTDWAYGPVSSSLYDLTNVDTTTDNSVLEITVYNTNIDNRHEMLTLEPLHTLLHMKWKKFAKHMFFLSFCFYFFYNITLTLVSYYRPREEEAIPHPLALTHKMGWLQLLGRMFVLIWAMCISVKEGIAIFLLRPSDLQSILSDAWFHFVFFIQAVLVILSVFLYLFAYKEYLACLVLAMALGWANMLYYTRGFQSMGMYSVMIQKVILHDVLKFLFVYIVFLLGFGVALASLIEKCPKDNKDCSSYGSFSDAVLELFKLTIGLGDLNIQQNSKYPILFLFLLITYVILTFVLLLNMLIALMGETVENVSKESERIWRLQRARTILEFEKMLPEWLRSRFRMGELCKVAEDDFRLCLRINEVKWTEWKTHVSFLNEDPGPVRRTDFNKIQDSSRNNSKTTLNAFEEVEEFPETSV

[2] = molecular target: T2, TRPV3-R696K (Homo sapiens, UniProt Q8NET8, R696K); experiment: Calcium flux in HEK-293 cells transiently transfected with TRPV3-R696K; assay type: cell-based; settings: 100 μmol/L carvacrol, 100 μmol/L 2-APB, 100 and 200 μmol/L drofenine
T2 sequence (Q8NET8 1-790 R696K): T1 sequence (Q8NET8 1-790) with R696K

[3] = molecular target: T3, TRPV3 in HaCaT cells (Homo sapiens, UniProt Q8NET8); experiment: Calcium flux in HaCaT cells; assay type: cell-based
T3 sequence (Q8NET8 1-790): T1 sequence (Q8NET8 1-790)

[4] = molecular target: T4, TRPV3-H426N (Homo sapiens, UniProt Q8NET8, H426N); experiment: Calcium flux in HEK-293 cells transiently transfected with TRPV3-H426N; assay type: cell-based; settings: agonist 100 μmol/L
T4 sequence (Q8NET8 1-790 H426N): T1 sequence (Q8NET8 1-790) with H426N

[5] = molecular target: T1, human TRPV3; experiment: Re-evaluation of screening hits as TRPV3 agonists; assay type: cell-based; settings: Table 1
[6] = molecular target: T1, human TRPV3; experiment: Re-evaluation of screening hits as TRPV3 antagonists; assay type: cell-based; settings: Table 2; selectivity versus other TRP channel overexpressing HEK-293 lines
[7] = system: TRPV3; settings: cited from earlier work; for EC50: depending on the model used
[8] = molecular target: T1, human TRPV3; experiment: Inhibition of agonist-induced calcium flux in TRPV3 overexpressing HEK-293 cells; assay type: cell-based; settings: all three agonists (drofenine, carvacrol, 2-APB)
[9] = system: HaCaT cells; experiment: Cell viability assay; assay type: cell-based, human; settings: data not shown
[10] = molecular target: human TRPV1 (Homo sapiens, UniProt Q8NER1); experiment: Calcium flux in HEK-293 cells overexpressing TRPV1; assay type: cell-based; settings: Table 2 comment
Sequence of human TRPV1 (Q8NER1 whole entry): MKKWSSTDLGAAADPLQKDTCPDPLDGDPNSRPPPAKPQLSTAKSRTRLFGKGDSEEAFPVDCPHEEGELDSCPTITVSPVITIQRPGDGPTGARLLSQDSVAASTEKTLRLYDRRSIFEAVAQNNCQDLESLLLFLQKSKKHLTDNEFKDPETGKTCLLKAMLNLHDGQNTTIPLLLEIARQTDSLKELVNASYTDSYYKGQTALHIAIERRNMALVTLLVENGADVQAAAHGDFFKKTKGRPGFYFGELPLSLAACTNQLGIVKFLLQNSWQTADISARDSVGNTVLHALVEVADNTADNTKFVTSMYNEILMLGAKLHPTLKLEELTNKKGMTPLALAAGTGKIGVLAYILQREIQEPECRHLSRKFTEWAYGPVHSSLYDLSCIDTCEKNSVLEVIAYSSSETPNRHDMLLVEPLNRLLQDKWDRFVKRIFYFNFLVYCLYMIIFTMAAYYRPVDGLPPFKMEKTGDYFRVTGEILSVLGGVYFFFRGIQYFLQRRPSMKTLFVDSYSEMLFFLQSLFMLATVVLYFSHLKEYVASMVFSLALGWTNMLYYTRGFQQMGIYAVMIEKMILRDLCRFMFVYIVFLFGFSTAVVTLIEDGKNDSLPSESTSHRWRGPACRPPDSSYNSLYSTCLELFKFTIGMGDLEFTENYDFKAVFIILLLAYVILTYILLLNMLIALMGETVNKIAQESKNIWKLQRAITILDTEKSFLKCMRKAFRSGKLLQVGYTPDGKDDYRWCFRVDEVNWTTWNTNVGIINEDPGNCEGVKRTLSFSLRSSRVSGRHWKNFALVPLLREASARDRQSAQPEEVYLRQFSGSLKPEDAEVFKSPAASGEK

| Molecule | Comment(s): re-evaluation as TRPV3 agonist [5] | Comment(s): re-evaluation as TRPV3 antagonist [6] | also measured |
| --- | --- | --- | --- |
| Cc1ccc(C(C)C)cc1O [carvacrol] |  |  | EC50 [1]: 438 µM; calcium flux in TRPV3-R696K [2]: diminished-to-no-function; EC50 [3]: > 1000 µM; calcium flux in TRPV3-H426N relative to TRPV3-WT [4]: no effect |
| CC(=O)OCC[N+](C)(C)C [Acetylcholine] | Nonselective; HEK-293 response |  |  |
| CC(C)=CCC/C(C)=C/CC/C(C)=C/COP(=O)(O)OP(=O)(O)O [farnesyl pyrophosphate] |  |  | EC50 ([7]; ref Bang et al. [2010]): ~0.13 µM |
| Cc1cccc2c1N(C(=O)CSc1ccc(C(F)(F)F)cn1)CCC2 [TRPV3 antagonist, 2-(5-trifluoromethyl-pyridine-2ylsulfanyl)-1-(8-methyl-3,4-dihydro-2H-quinolin-1-yl)-ethanone] |  |  | IC50 [8]: 1 to 3 µM |
| O=C1NC(c2cccc([N+](=O)[O-])c2)=CCN1c1ccccc1O [icilin] |  |  | inhibition of TRPV3 ([7]; ref Sherkheli et al. [2012]): inhibits TRPV3 at low micromolar concentrations; cytotoxicity [9]: potently cytotoxic |
| CCCCCCc1ccc(O)cc1O.Nc1c2ccccc2nc2ccccc12 [Acrisorcin] | 4-Hexylresorcinol inactive as TRPV3 agonist; 9-aminoacridine fluorescence interference |  |  |
| Cc1ccc(C(C)(C)C)c(O)c1 [cresol, 6-tert-butyl-m-cresol] |  |  | EC50 ([7]; ref Vogt-Eisele et al. [2007]): > 6000 µM |
| COc1cc([C@@H]2c3cc4c(cc3[C@@H](O[C@@H]3O[C@@H]5CO[C@@H](C)O[C@H]5[C@H](O)[C@H]3O)[C@H]3COC(=O)[C@H]23)OCO4)cc(OC)c1O [Etoposide] |  | Cytotoxic, false positive |  |
| CN[C@@H]1[C@H](O)[C@H](NC)[C@H]2O[C@@]3(O)C(=O)C[C@@H](C)O[C@H]3O[C@@H]2[C@H]1O.Cl.Cl.O.O.O.O.O [Spectinomycin HCl] |  | Not inhibitory on rescreen |  |

Now from value to molecule, other results behind:

| Comment(s): re-evaluation as TRPV3 agonist [5] | Comment(s): re-evaluation as TRPV3 antagonist [6] | Molecule | also measured |
| --- | --- | --- | --- |
| Fluorescence interference |  | Acriflavinium HCl |  |
|  | Not inhibitory on rescreen | CCCCOc1ccc(C(=O)CCN2CCCCC2)cc1 [Dyclonine HCl] |  |
|  | Not inhibitory on rescreen | O=C1C(CC[S+]([O-])c2ccccc2)C(=O)N(c2ccccc2)N1c1ccccc1 (centres unmarked) [Sulfinpyrazone] |  |
| Inactive in confirmation assay |  | CC(C)COCC(CN(Cc1ccccc1)c1ccccc1)N1CCCC1.Cl.O (centres unmarked) [Bepradil HCl] |  |
|  | inhibited TRPA1>V3=V1 | CCCCNc1ccc(C(=O)OCCN(C)C)cc1 [Tetracaine HCl] | concentration of apparent TRPV1 agonist activity [10]: < 25 µmol/L |
| Inactive in confirmation assay |  | CC(=O)Nc1ccccc1 [Acetanilide] |  |
|  | Not inhibitory on rescreen | CC[C@H]1OC(=O)[C@H](C)[C@@H](O[C@H]2C[C@@](C)(OC)[C@@H](O)[C@H](C)O2)[C@H](C)[C@@H](O[C@@H]2O[C@H](C)C[C@H](N(C)C)[C@H]2O)[C@](C)(O)C[C@@H](C)C(=O)[C@H](C)[C@@H](O)[C@]1(C)O [Erythromycin] |  |
| Nonselective; HEK-293 response |  | CC(=O)OC(C)C[N+](C)(C)C (centres unmarked) [Methacholine] |  |
|  | Nonselective; also inhibited TRPV1 | CC(=O)CC(c1ccccc1)c1c(O)c2ccccc2oc1=O (centres unmarked) [Warfarin] |  |
| Nonselective; HEK-293 response |  | C[N+](C)(C)CCOC(N)=O [Carbachol] |  |
|  | Nonselective; also inhibited TRPV1 | O=C(O)c1ccccc1Nc1cccc(C(F)(F)F)c1 [Flufenamic acid] |  |
|  | Not inhibitory on rescreen | O=C(N[C@H](CO)[C@H](O)c1ccc([N+](=O)[O-])cc1)C(Cl)Cl [Chloramphenicol] |  |
